In US20240108602A1, “TREATMENT OF MENTAL DISORDERS” (GH Research Ireland Limited, priority 2022, published 2024):
Where “and” joins values, the source holds several entries; their conditions need not be identical. Equal values may be shown once.

Tested on: patients with treatment-resistant major depressive disorder (TRD)
Test: Phase 1/2 clinical trial of inhaled 5-MeO-DMT in TRD patients (12 mg, 18 mg, individualized dosing regimen IDR 6/12/18 mg)
Description: Patients were assigned to different groups. In the context of the present invention, the group who received a single, 12 mg dose and the group who underwent an intra-day individualized dosing regimen (IDR) that allowed for multiple, escalating doses (6 mg, 12 mg and 18 mg) within a single day, driven by the intensity of the patient-reported psychedelic experience are of interest.
The data gathered include the assessment of the treated patients against several scales including the Montgomery-Åsberg Depression Rating Scale (MADRS) and the Brief Psychiatric Rating Scale (BPRS).
This trial was designed in two parts. Part A was an open-label, single-arm, single-dose Phase 1 trial with two dose levels (12 mg (n=4) and 18 mg (n=4)). […] The primary endpoint of Part B was to assess the effects on the severity of depression, as assessed by the proportion of patients in remission on day seven after dosing, defined as a MADRS total score of less than or equal to 10.

COc1ccc2[nH]cc(CCN(C)C)c2c1 [5-MeO-DMT]
MADRS Concentration Difficulties improvement (points) (IDR n=8, 2 h): 19
MADRS Concentration Difficulties percentage improvement (IDR n=8, 2 h): 63% and 63.33%
MADRS Concentration Difficulties summed score (IDR n=8, 2 h): 11
MADRS Inability to Feel improvement (points) (IDR n=8, 2 h): 24
MADRS Inability to Feel percentage improvement (IDR n=8, 2 h): 67% and 66.67%
MADRS Inability to Feel summed score (IDR n=8, 2 h): 12
MADRS Inner Tension improvement (points) (IDR n=8, 2 h): 15
MADRS Inner Tension percentage improvement (IDR n=8, 2 h): 58% and 57.69%
MADRS Inner Tension summed score (IDR n=8, 2 h): 11
MADRS Lassitude improvement (points) (IDR n=8, 2 h): 17
MADRS Lassitude percentage improvement (IDR n=8, 2 h): 63% and 62.96%
MADRS Lassitude summed score (IDR n=8, 2 h): 10
MADRS Pessimistic Thoughts improvement (points) (IDR n=8, 2 h): 21
MADRS Pessimistic Thoughts percentage improvement (IDR n=8, 2 h): 75%
MADRS Pessimistic Thoughts summed score (IDR n=8, 2 h): 7
MADRS Suicidal Thoughts improvement (points) (IDR n=8, 2 h): 8
MADRS Suicidal Thoughts percentage improvement (IDR n=8, 2 h): 73% and 72.72%
MADRS Suicidal Thoughts summed score (IDR n=8, 2 h): 3
BPRS Anxiety improvement (points) (IDR n=8, 3 h): 18
BPRS Anxiety percentage improvement (IDR n=8, 3 h): 49% and 48.65%
BPRS Anxiety summed score (IDR n=8, 3 h): 19
BPRS Blunted Affect improvement (points) (IDR n=8, 3 h): 4
BPRS Blunted Affect percentage improvement (IDR n=8, 3 h): 27% and 26.67%
BPRS Blunted Affect summed score (IDR n=8, 3 h): 11
BPRS Emotional Withdrawal improvement (points) (IDR n=8, 3 h): 5
BPRS Emotional Withdrawal percentage improvement (IDR n=8, 3 h): 38% and 38.46%
BPRS Emotional Withdrawal summed score (IDR n=8, 3 h): 8
BPRS Guilt Feelings improvement (points) (IDR n=8, 3 h): 20
BPRS Guilt Feelings percentage improvement (IDR n=8, 3 h): 59% and 58.82%
BPRS Guilt Feelings summed score (IDR n=8, 3 h): 14
BPRS Tension improvement (points) (IDR n=8, 3 h): 5
BPRS Tension percentage improvement (IDR n=8, 3 h): 31% and 31.25%
BPRS Tension summed score (IDR n=8, 3 h): 11
BPRS Anxiety improvement (points) (IDR n=8, Day 1): 21
BPRS Anxiety percentage improvement (IDR n=8, Day 1): 57% and 56.76%
BPRS Anxiety summed score (IDR n=8, Day 1): 16
BPRS Blunted Affect improvement (points) (IDR n=8, Day 1): 7
BPRS Blunted Affect percentage improvement (IDR n=8, Day 1): 47% and 46.67%
BPRS Blunted Affect summed score (IDR n=8, Day 1): 8
BPRS Emotional Withdrawal improvement (points) (IDR n=8, Day 1): 5
BPRS Emotional Withdrawal percentage improvement (IDR n=8, Day 1): 38% and 38.46%
BPRS Emotional Withdrawal summed score (IDR n=8, Day 1): 8
BPRS Guilt Feelings improvement (points) (IDR n=8, Day 1): 23
BPRS Guilt Feelings percentage improvement (IDR n=8, Day 1): 68% and 67.65%
BPRS Guilt Feelings summed score (IDR n=8, Day 1): 11
BPRS Tension improvement (points) (IDR n=8, Day 1): 5
BPRS Tension percentage improvement (IDR n=8, Day 1): 31% and 31.25%
BPRS Tension summed score (IDR n=8, Day 1): 11
MADRS Concentration Difficulties improvement (points) (IDR n=8, Day 1): 29
MADRS Concentration Difficulties percentage improvement (IDR n=8, Day 1): 97% and 96.67%
MADRS Concentration Difficulties summed score (IDR n=8, Day 1): 1
MADRS Inability to Feel improvement (points) (IDR n=8, Day 1): 34
MADRS Inability to Feel percentage improvement (IDR n=8, Day 1): 94% and 94.44%
MADRS Inability to Feel summed score (IDR n=8, Day 1): 2
MADRS Inner Tension improvement (points) (IDR n=8, Day 1): 20
MADRS Inner Tension percentage improvement (IDR n=8, Day 1): 77% and 76.92%
MADRS Inner Tension summed score (IDR n=8, Day 1): 6
MADRS Lassitude improvement (points) (IDR n=8, Day 1): 22
MADRS Lassitude percentage improvement (IDR n=8, Day 1): 81% and 81.48%
MADRS Lassitude summed score (IDR n=8, Day 1): 5
MADRS Pessimistic Thoughts improvement (points) (IDR n=8, Day 1): 24
MADRS Pessimistic Thoughts percentage improvement (IDR n=8, Day 1): 86% and 85.71%
MADRS Pessimistic Thoughts summed score (IDR n=8, Day 1): 4
MADRS Reduced Sleep improvement (points) (IDR n=8, Day 1): 13
MADRS Reduced Sleep percentage improvement (IDR n=8, Day 1): 52%
MADRS Reduced Sleep summed score (IDR n=8, Day 1): 12
MADRS Suicidal Thoughts improvement (points) (IDR n=8, Day 1): 10
MADRS Suicidal Thoughts percentage improvement (IDR n=8, Day 1): 91% and 90.91%
MADRS Suicidal Thoughts summed score (IDR n=8, Day 1): 1
BPRS Anxiety improvement (points) (IDR n=8, Day 7): 20
BPRS Anxiety percentage improvement (IDR n=8, Day 7): 54% and 54.05%
BPRS Anxiety summed score (IDR n=8, Day 7): 17
BPRS Blunted Affect improvement (points) (IDR n=8, Day 7): 7
BPRS Blunted Affect percentage improvement (IDR n=8, Day 7): 47% and 46.67%
BPRS Blunted Affect summed score (IDR n=8, Day 7): 8
BPRS Emotional Withdrawal improvement (points) (IDR n=8, Day 7): 5
BPRS Emotional Withdrawal percentage improvement (IDR n=8, Day 7): 38% and 38.46%
BPRS Emotional Withdrawal summed score (IDR n=8, Day 7): 8
BPRS Guilt Feelings improvement (points) (IDR n=8, Day 7): 24
BPRS Guilt Feelings percentage improvement (IDR n=8, Day 7): 71% and 70.59%
BPRS Guilt Feelings summed score (IDR n=8, Day 7): 10
BPRS Tension improvement (points) (IDR n=8, Day 7): 6
BPRS Tension percentage improvement (IDR n=8, Day 7): 38% and 37.50%
BPRS Tension summed score (IDR n=8, Day 7): 10
MADRS Concentration Difficulties improvement (points) (IDR n=8, Day 7): 21
MADRS Concentration Difficulties percentage improvement (IDR n=8, Day 7): 70%
MADRS Concentration Difficulties summed score (IDR n=8, Day 7): 9
MADRS Inability to Feel improvement (points) (IDR n=8, Day 7): 30
MADRS Inability to Feel percentage improvement (IDR n=8, Day 7): 83% and 83.33%
MADRS Inability to Feel summed score (IDR n=8, Day 7): 6
MADRS Inner Tension improvement (points) (IDR n=8, Day 7): 14
MADRS Inner Tension percentage improvement (IDR n=8, Day 7): 54% and 53.85%
MADRS Inner Tension summed score (IDR n=8, Day 7): 12
MADRS Lassitude improvement (points) (IDR n=8, Day 7): 24
MADRS Lassitude percentage improvement (IDR n=8, Day 7): 89% and 88.89%
MADRS Lassitude summed score (IDR n=8, Day 7): 3
MADRS Pessimistic Thoughts improvement (points) (IDR n=8, Day 7): 25
MADRS Pessimistic Thoughts percentage improvement (IDR n=8, Day 7): 89% and 89.29%
MADRS Pessimistic Thoughts summed score (IDR n=8, Day 7): 3
MADRS Reduced Sleep improvement (points) (IDR n=8, Day 7): 16
MADRS Reduced Sleep percentage improvement (IDR n=8, Day 7): 64%
MADRS Reduced Sleep summed score (IDR n=8, Day 7): 9
MADRS Suicidal Thoughts improvement (points) (IDR n=8, Day 7): 8
MADRS Suicidal Thoughts percentage improvement (IDR n=8, Day 7): 73% and 72.73%
MADRS Suicidal Thoughts summed score (IDR n=8, Day 7): 3
patients with MADRS remission (primary endpoint) (IDR n=8, day seven): 87.5%
SAEs reported (Part A): No SAEs
safety laboratory analyses, vital signs, psychiatric safety assessments, measures of cognitive function (Part A and Part B): No clinically significant changes
patients who experienced at least one ADR (Part A, in both groups (12 mg and 18 mg)): 3 of 4
SAEs reported (Part B IDR): No SAEs
patients who experienced at least one ADR (Part B IDR n=8): 87.5%
patients achieving remission (fraction) (day 1): 8/8
patients achieving remission (fraction) (within 2 h after dosing): ⅝
